Data on one compound can be found in ChEMBL document CHEMBL5325471, “Identification of new modulator of DNA repairing pathways based on natural product (±)-peharmaline A” (Bioorg Med Chem, 2023).

One data set concerns SGC-7901. The experiment in a line: Cytotoxicity against human SGC-7901 cells. The data set is classed as functional, cell-based.
Another data set relates to MCF7. In words: Antiproliferative activity against human MCF7 cells assessed as cell growth inhibition incubated for 44 hrs by MTT assay. The data set is classed as functional, cell-based. As to conditions: MCF7, 44 h. (In general: Tetrazolium assays rely on reduction of a dye to a coloured formazan, in cell work by metabolically active cells.)
A short description of data set [1]: Cytotoxicity against human fR2 cells assessed as cell growth inhibition incubated for 44 hrs by MTT assay. The data set is classed as toxicity, cell-based.
The subject of another data set is A549. In words: Antiproliferative activity against human A549 cells assessed as cell growth inhibition incubated for 44 hrs by MTT assay. The data set is classed as functional, cell-based. As to conditions: A549, 44 h.
Another data set concerns HCT-116. The experiment in a line: Antiproliferative activity against human HCT-116 cells assessed as cell growth inhibition incubated for 44 hrs by MTT assay. As to conditions: HCT-116, 44 h. It is filed as functional, cell-based.
Data set [2] relates to PC-3. In words: Cytotoxicity against human PC-3 cells. It is filed as functional, cell-based.
In a further data set the test system is HL-60. The experiment in a line: Cytotoxicity against human HL-60 cells. It is filed as functional, cell-based.
Data set [3] has as its system PC-3. In words: Antiproliferative activity against human PC-3 cells assessed as cell growth inhibition incubated for 44 hrs by MTT assay. The data set is classed as functional, cell-based. As to conditions: PC-3, 44 h.

On to `COC(=O)[C@]1([C@H]2CCn3c2nc2ccccc2c3=O)NCCc2c1[nH]c1cc(OC)ccc21` (racemic), for which the IC50 – broadly, the concentration needed to halve the response being measured – with SGC-7901 is 25.4 µM; with MCF7 it was 6.22 µM; with A549 it was 5.24 µM; in the data set with HCT-116, 15.4 µM; in the data set with PC-3 [2], 21.6 µM; in the data set on HL-60 it was 9.2 µM. Besides, the half-maximal inhibitory concentration (IC50) with PC-3 [3] was 12.2 µM. Besides, the IC50 at 44 h in data set [1] came out at 17.9 µM.
